In EP0295604A1, “(E)-2-(p-Fluorophenethyl)-3-fluoroallylamine” (MERRELL DOW PHARMACEUTICALS INC., priority 1987, dated 1988):

Experiments:
[1] = tested on: tachycardia response to tyramine; test: Potentiation of the cardiovascular effects of tyramine (tachycardia response); format: in vivo; conditions: for Tyramine potentiation ratio i.d.: intraduodenal tyramine 0.3-50 mg/kg; for Tyramine potentiation ratio i.v.: intravenous tyramine 1.25-80 µg/kg
Excerpt: Non-selective and MAO-A selective inhibitors are known to produce dangerous cardiovascular interactions with tyramine containing foods; the so-called "cheese reaction". L-Deprenyl is devoid of this effect.

MAO-A = test: Chronic (14 day) oral administration, rat tissue MAO-A activity; format: in vivo
Excerpt: Following repeated daily administration for 14 days, (E)-2-p-fluorophenethyl)-3-fluoroallylamine remained selective for the MAO-B enzyme. From the irreversible inhibition, mode of action and the long half-life of the enzyme, a lower daily dose is needed to inhibit the enzyme.

MAO-B = test: Chronic (14 day) oral administration, rat tissue MAO-B activity; format: in vivo
Striatal dopamine = test: Prevention of MPTP neurotoxicity (striatal dopamine); format: in vivo; conditions: mice
Excerpt: MPTP given parenterally to mice depletes striatal dopamine. This effect can be prevented by MAO-B, but not by MAO-A inhibitor.

[2] = molecular target: T1, rat brain mitochondrial MAO-A (Rattus norvegicus, UniProt P21396); test: In vitro inhibition of rat brain mitochondrial MAO-A; format: biochemical
T1 construct: from tissue; host or cells: rat brain mitochondria
T1 sequence (P21396 1-526): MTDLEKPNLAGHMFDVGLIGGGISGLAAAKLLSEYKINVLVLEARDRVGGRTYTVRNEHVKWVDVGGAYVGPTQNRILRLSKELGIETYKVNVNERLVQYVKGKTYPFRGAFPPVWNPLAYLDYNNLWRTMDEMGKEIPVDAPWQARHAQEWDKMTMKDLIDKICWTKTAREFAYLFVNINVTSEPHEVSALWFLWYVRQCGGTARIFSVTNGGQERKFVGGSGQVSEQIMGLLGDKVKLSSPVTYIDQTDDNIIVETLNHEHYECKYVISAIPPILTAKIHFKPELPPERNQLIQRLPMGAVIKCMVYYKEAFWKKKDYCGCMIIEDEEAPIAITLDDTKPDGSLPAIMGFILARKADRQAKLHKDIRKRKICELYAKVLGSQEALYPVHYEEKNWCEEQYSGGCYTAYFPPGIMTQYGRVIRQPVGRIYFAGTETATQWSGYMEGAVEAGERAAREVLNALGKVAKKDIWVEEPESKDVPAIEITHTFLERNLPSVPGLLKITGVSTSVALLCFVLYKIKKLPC
Excerpt: In vivo, the compound is active orally, is potent and with a selectivity ratio of 44 remains selective for MAO-B.

[3] = molecular target: T2, rat brain mitochondrial MAO-B (Rattus norvegicus, UniProt P19643); test: In vitro inhibition of rat brain mitochondrial MAO-B; format: biochemical; conditions: MAO-A vs MAO-B IC50
T2 sequence (P19643 1-520): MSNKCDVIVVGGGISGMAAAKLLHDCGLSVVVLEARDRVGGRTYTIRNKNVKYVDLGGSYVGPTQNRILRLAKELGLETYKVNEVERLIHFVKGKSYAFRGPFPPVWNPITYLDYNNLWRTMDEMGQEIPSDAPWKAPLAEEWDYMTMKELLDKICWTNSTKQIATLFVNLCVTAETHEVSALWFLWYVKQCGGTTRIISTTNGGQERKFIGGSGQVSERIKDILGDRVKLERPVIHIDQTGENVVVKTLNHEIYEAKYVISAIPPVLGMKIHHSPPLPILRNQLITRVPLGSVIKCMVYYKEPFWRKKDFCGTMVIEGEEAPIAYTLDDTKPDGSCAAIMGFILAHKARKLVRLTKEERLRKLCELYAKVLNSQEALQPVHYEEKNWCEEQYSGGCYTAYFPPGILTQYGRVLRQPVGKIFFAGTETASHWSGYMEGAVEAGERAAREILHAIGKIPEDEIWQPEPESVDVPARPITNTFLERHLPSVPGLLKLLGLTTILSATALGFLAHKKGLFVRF

IC50 [2]	selectivity ratio in favor of MAO-B inhibition [3]	Compound	Tyramine potentiation ratio i.d. ([1]; 1.8 mg/kg p.o.)	Tyramine potentiation ratio i.v. ([1]; 1.8 mg/kg p.o.)	Tyramine potentiation ratio i.d. ([1]; 9 mg/kg p.o.)	Tyramine potentiation ratio i.v. ([1]; 9 mg/kg p.o.)	interactions with tyramine ([1]; given acutely at 10 and 50 times the ED50 dose for inhibition of MAO-B)	ED50 MAO-A (MAO-A; Brain)	ED50 MAO-A (MAO-A; Duodenum)	ED50 MAO-A (MAO-A; Heart)	ED50 MAO-A (MAO-A; Liver)	ED50 MAO-B (MAO-B; Brain)	ED50 MAO-B (MAO-B; Duodenum)	ED50 MAO-B (MAO-B; Heart)	ED50 MAO-B (MAO-B; Liver)	Striatal dopamine (Striatal dopamine; MPTP plus compound)	Striatal dopamine (Striatal dopamine; compound alone, 1.25 mg/kg i.p.)	Striatal dopamine (Striatal dopamine; MPTP alone, 20 mg/kg i.p.)
680 nM	190	NC/C(=C/F)CCc1ccc(F)cc1 [(E)-2-(p-fluorophenethyl)-3-fluoroallylamine]	1.4	0.8	1.3	1.8	devoid of interactions with tyramine	> 5 mg/kg p.o.	>>5 mg/kg p.o.	5 mg/kg p.o.	> 5 mg/kg p.o.	0.025 mg/kg p.o.	0.25 mg/kg p.o.	0.5 mg/kg p.o.	0.01 mg/kg p.o.	16.0 ± 0.4 ug/g ± SEM	16.6 ± 0.9 ug/g ± SEM	–
–	–	CN1CC=C(c2ccccc2)CC1 [MPTP, N-methyl-4-phenyl-1,2,3,6-tetrahydropyridine, reference compound]	–	–	–	–	–	–	–	–	–	–	–	–	–	–	–	4.3 ± 0.4 ug/g ± SEM
